{"source": "ChEMBL document CHEMBL5620382", "about": "“Fluoroindole chalcone analogues targeting the colchicine binding site of tubulin for colorectal oncotherapy” (Eur J Med Chem, 2023)", "key": {"HCT-116 [1]": {"tested_on": "HCT-116", "assay": "Antiproliferative activity against human HCT-116 cells assessed as dead cells at 2.5 to 20 nM measured after 24 hrs by Calcein-AM/PI staining based immunofluorescence analysis", "format": "functional, cell-based", "conditions": "dose 2.5-20 nM"}, "Tubulin (Homo sapiens)": {"molecular_target": "Tubulin (Homo sapiens) (UniProt P68371+Q9H4B7+P0DPH7+P68366+Q13509+Q71U36+P04350+Q3ZCM7+P07437+P68363+Q9BQE3+Q6PEY2+Q13885+Q9BVA1+Q9BUF5)", "assay": "Induction of microtubule stabilization in human HCT-116 cells at […] using 1:300 ratio of cell lysate/pronase incubated for 2 hrs by drug affinity reactive target stabilization (DARTS) assay", "format": "subcellular"}, "HCT-116 [2]": {"tested_on": "HCT-116", "assay": "Induction of endoplasmic reticulum (ER) stress in human HCT-116 cells assessed as increase in ROS level at 5 nM measured after 24 hrs by fluorescent analysis (reference value: 12%)", "format": "functional"}, "HCT-116 [3]": {"tested_on": "HCT-116", "assay": "Induction of endoplasmic reticulum (ER) stress in human HCT-116 cells assessed as increase p-PERK expression at 10 to 20 nM measured after 24 hrs by Western blot analysis", "format": "functional, cell-based", "conditions": "dose 10-20 nM"}, "HCT-116 [4]": {"tested_on": "HCT-116", "assay": "Induction of endoplasmic reticulum (ER) stress in human HCT-116 cells assessed as increase in ROS level at 1.25 nM measured after 24 hrs by fluorescent analysis (reference value: 12%)", "format": "functional"}, "Mus musculus": {"tested_on": "Mus musculus", "assay": "Antitumor activity against C57BL/6-APCmin/+ mouse model assessed as reduction in number of tumors in intestine at 3 mg/kg, ip treated for 45 days relative to control", "format": "functional, organism-based", "conditions": "time 45.0 day"}, "CT26 [5]": {"tested_on": "CT26", "assay": "Induction of endoplasmic reticulum (ER) stress in mouse CT26 cells assessed as increase p-eIF2alpha expression at 10 to 40 nM measured after 24 hrs by Western blot analysis", "format": "functional, cell-based", "conditions": "dose 10-40 nM"}, "CT26 [6]": {"tested_on": "CT26", "assay": "Induction of cell cycle arrest in mouse CT26 cells […] assessed as accumulation of cells at G2/M phase at 2.5 to 10 nM by flow cytometry analysis", "format": "functional, cell-based", "conditions": "dose 2.5-10 nM"}, "HCT-116 [7]": {"tested_on": "HCT-116", "assay": "Induction of endoplasmic reticulum (ER) stress in human HCT-116 cells assessed as increase in ROS level at 2.5 nM measured after 24 hrs by fluorescent analysis (reference value: 12%)", "format": "functional"}, "CT26 [8]": {"tested_on": "CT26", "assay": "Induction of endoplasmic reticulum (ER) stress in mouse CT26 cells assessed as increase in ROS level at 10 to 40 nM measured after 24 hrs by DCFH-DA analysis", "format": "functional, cell-based", "conditions": "dose 10-40 nM"}, "CT26 [9]": {"tested_on": "CT26", "assay": "Antiproliferative activity against mouse CT26 cells assessed as dead cells at 2.5 to 40 nM measured after 24 hrs by Calcein-AM/PI staining based immunofluorescence analysis", "format": "functional, cell-based", "conditions": "dose 2.5-40 nM"}, "HCT-116 [10]": {"tested_on": "HCT-116", "assay": "Anti-tumor activity against human HCT-116 cells xenografted in BALB/c mouse assessed as increase in necrotic area in tumor section at 3 mg/kg, ip thrice a week for three weeks by H and E staining based assay", "format": "functional, organism-based", "conditions": "time 3.0 weeks"}, "CT26 [11]": {"tested_on": "CT26", "assay": "Induction of endoplasmic reticulum (ER) stress in mouse CT26 cells assessed as upregulation of cleaved-caspase 3 at 10 to 40 nM measured after 24 hrs by Western blot analysis", "format": "functional, cell-based", "conditions": "dose 10-40 nM"}, "HCT-116 [12]": {"tested_on": "HCT-116", "assay": "Induction of endoplasmic reticulum (ER) stress in human HCT-116 cells assessed as increase in ROS level at 10 nM measured after 24 hrs by fluorescent analysis (reference value: 12%)", "format": "functional"}, "HCT-116 [13]": {"tested_on": "HCT-116", "assay": "Anti-tumor activity against human HCT116 cells xenografted in BALB/c mouse assessed as inhibition of tumor growth at 1.5 to 3 mg/kg, ip thrice a week for three weeks", "format": "functional, organism-based", "conditions": "dose 1.5-3 mg/kg, time 3.0 weeks"}, "CT26 [14]": {"tested_on": "CT26", "assay": "Induction of endoplasmic reticulum (ER) stress in mouse CT26 cells assessed as increase in ROS level at 2.5 nM measured after 24 hrs by fluorescent analysis (reference value: 14%)", "format": "functional"}, "NCM460": {"tested_on": "NCM460", "assay": "Antiproliferative activity against human NCM460 cells assessed as inhibition of proliferation at 2.5 to 20 nM measured after 24 hrs by CCK-8 assay", "format": "toxicity, cell-based", "conditions": "ncm460, 24 h, 0.02 µM, dose 2.5-20 nM"}, "HCT-116 [15]": {"tested_on": "HCT-116", "assay": "Induction of endoplasmic reticulum (ER) stress in human HCT-116 cells assessed as upregulation of cleaved-caspase 3 at 10 to 20 nM measured after 24 hrs by Western blot analysis", "format": "functional, cell-based", "conditions": "dose 10-20 nM"}, "CT26 [16]": {"tested_on": "CT26", "assay": "Induction of mitochondrial dysfunction in mouse CT26 cells assessed as change in mitochondrial membrane potential (MMP) by JC-1 fluorescence assay", "format": "functional, cell-based", "conditions": "dose 2.5-40 µM"}, "HCT-116 [17]": {"tested_on": "HCT-116", "assay": "Induction of endoplasmic reticulum (ER) stress in human HCT-116 cells assessed as increase in ROS level at 20 nM measured after 24 hrs by fluorescent analysis (reference value: 12%)", "format": "functional"}, "[18]": {"assay": "Toxicity in C57B/6-APCmin/+ mouse model assessed as organ toxicity at 3 mg/kg, ip treated for 45 days by H and E staining", "format": "organism-based", "conditions": "in vivo, 1080 h, time 45 day"}, "HCT-116 [19]": {"tested_on": "HCT-116", "assay": "Anti-tumor activity against human HCT-116 cells xenografted in BALB/c mouse assessed as apoptosis in tumor section at 3 mg/kg, ip thrice a week for three weeks by TUNEL staining based assay", "format": "functional, organism-based", "conditions": "time 3.0 weeks"}, "HCT-116 [20]": {"tested_on": "HCT-116", "assay": "Anti-tumor activity against human HCT-116 cells xenografted in BALB/c mouse assessed as inhibition of cell proliferation in tumor section at 3 mg/kg, ip thrice a week for three weeks by Ki-67 staining based assay", "format": "functional, organism-based", "conditions": "time 3.0 weeks"}, "HCT-116 [21]": {"tested_on": "HCT-116", "assay": "Induction of endoplasmic reticulum (ER) stress in human HCT-116 cells assessed as organelle vacuoles at 10 to 20 nM measured after 24 hrs by transmission electron microscope (TEM) analysis", "format": "functional, cell-based", "conditions": "dose 10-20 nM"}, "CT26 [22]": {"tested_on": "CT26", "assay": "Induction of endoplasmic reticulum (ER) stress in mouse CT26 cells assessed as increase p-IRE1alpha expression at 10 to 40 nM measured after 24 hrs by Western blot analysis", "format": "functional, cell-based", "conditions": "dose 10-40 nM"}, "CT26 [23]": {"tested_on": "CT26", "assay": "Induction of endoplasmic reticulum (ER) stress in mouse CT26 cells assessed as increase p-PERK expression at 10 to 40 nM measured after 24 hrs by Western blot analysis", "format": "functional, cell-based", "conditions": "dose 10-40 nM"}, "HCT-116 [24]": {"tested_on": "HCT-116", "assay": "Antiproliferative activity against human HCT116 cells assessed as inhibition of proliferation measured after 24 hrs by CCK-8 assay", "format": "functional, cell-based", "conditions": "HCT-116, 24 h"}}, "note": "pIC50: −log10 of the molar value. Activity calls are given as the source filed them. The calls are words filed in the database; no cut-off is given here.", "data": [{"smiles": "COc1cc(C(=O)/C(C)=C/c2c[nH]c3cc(F)ccc23)cc(OC)c1OC", "values": [{"measurement": "Activity", "setting": "HCT-116 [1]", "result": "Active"}, {"measurement": "Activity", "setting": "Tubulin (Homo sapiens)", "result": "Active"}, {"measurement": "Activity", "setting": "HCT-116 [2]", "result": 48.5, "unit": "%"}, {"measurement": "Activity", "setting": "HCT-116 [3]", "result": "Active"}, {"measurement": "Activity", "setting": "HCT-116 [4]", "result": 20.1, "unit": "%"}, {"measurement": "Activity", "setting": "Mus musculus", "result": "Active"}, {"measurement": "Activity", "setting": "CT26 [5]", "result": "Active"}, {"measurement": "Activity", "setting": "CT26 [6]", "result": "Active"}, {"measurement": "Activity", "setting": "HCT-116 [7]", "result": 35.6, "unit": "%"}, {"measurement": "Activity", "setting": "CT26 [8]", "result": "Active"}, {"measurement": "Activity", "setting": "CT26 [9]", "result": "Active"}, {"measurement": "Activity", "setting": "HCT-116 [10]", "result": "Active"}, {"measurement": "Activity", "setting": "CT26 [11]", "result": "Active"}, {"measurement": "Activity", "setting": "HCT-116 [12]", "result": 73.8, "unit": "%"}, {"measurement": "Activity", "setting": "HCT-116 [13]", "result": "Active"}, {"measurement": "Activity", "setting": "CT26 [14]", "result": 14.5, "unit": "%"}, {"measurement": "Activity", "setting": "NCM460", "result": "Non-Toxic"}, {"measurement": "Activity", "setting": "HCT-116 [15]", "result": "Active"}, {"measurement": "Activity", "setting": "CT26 [16]", "result": "Dose-Dependent Effect"}, {"measurement": "Activity", "setting": "HCT-116 [17]", "result": 74.4, "unit": "%"}, {"measurement": "Activity", "setting": "[18]", "result": "Non-Toxic"}, {"measurement": "Activity", "setting": "HCT-116 [19]", "result": "Active"}, {"measurement": "Activity", "setting": "HCT-116 [20]", "result": "Active"}, {"measurement": "Activity", "setting": "HCT-116 [21]", "result": "Active"}, {"measurement": "Activity", "setting": "CT26 [22]", "result": "Active"}, {"measurement": "Activity", "setting": "CT26 [23]", "result": "Active"}, {"measurement": "pIC50", "setting": "HCT-116 [24]", "result": 8.34}]}]}
